{
  "source": "paper PMC9181589",
  "about": "“Antamanide Analogs as Potential Inhibitors of Tyrosinase” (International Journal of Molecular Sciences, 2022)",
  "key": {"mushroom tyrosinase": {"test_system": "mushroom tyrosinase", "experiment": "Tyrosinase inhibition, UV-Vis spectroscopic method (L-Tyr oxidation by tyrosinase/O2)", "type": "biochemical", "text": "The capability of peptides to inhibit the activity of tyrosinase has been evaluated by a UV-Vis spectroscopic method monitoring the changes in the UV-Vis spectrum of its natural substrate, L-Tyr. […] The addition of enzyme firstly hydroxylated the L-Tyr residue to dihydroxyphenylalanine (DOPA) and successively oxidized DOPA to dopaquinone, which is then converted to dopachrome (Scheme 2). Both DOPA and dopaquinone appearance can be detected by the change in the UV-Vis spectrum. The hydroxylation of L-Tyr to DOPA is characterized by an increase in the intensity of the band at 275 nm and the appearance of an additional band at about 304 nm, while the oxidation to dopaquinone is made detectable by the appearance of a band at 470–490 nm. […] This phase is related to the monophenolase activity of the enzyme and essentially is due to the low amount of the oxy form of the tyrosinase enzyme in the commercially available preparation. Although other various factors may play an important role, including substrate and enzyme concentration, enzyme source, pH of the medium, and presence of hydrogen donors such as DOPA or other catechols, also the presence of transition metal ions can influence the presence and the length of this lag-phase.\nMillimolar peptide stock solutions were prepared in DMSO and then diluted to μM concentration by buffer in UV cells. […] The capability of peptides to inhibit the tyrosinase activity was evaluated at two different peptide concentrations, 2 and 0.2 µM.\nThe capability of cyclic peptides to inhibit the oxidation of Tyr by the tyrosinase/O2 oxidizing system was monitored by means of a UV-Vis spectroscopy method, carried out in a Shimadzu UV-Visible UV-2501 spectral spectrophotometer using Helma (Mülheim, Germany) duple chambers UV-cell (2 × 4.375 mm). Briefly, 880 µL of a Tyr solution (2 mM) and 900 µL of a mushroom tyrosinase solution (2000 U/mL, Sigma-Aldrich), both dissolved in 50 mM phosphate buffer (pH 6.8), were separately introduced in the duple UV-cell chambers. A total of 20 µL of an appropriate DMSO stock solution of inhibitors (1.8, 0.18, or 0.018 mM) were added to the chamber containing the Tyr solution. The tyrosinase activity in absence of inhibitors was detected by adding 20 µL of DMSO. A background UV-Vis spectrum was acquired in the 250–800 nm wavelength range with a 2.0 nm slit and fast speed before starting the reaction. Thereafter, the solutions were mixed, and UV-Vis spectra were acquired at different time points after mixing. Three replicates were performed for each experiment. Data processing was performed with UV Probe (Shimazdu, Kyoto, Japan) and OriginPro 2019 (v. 9.60) software (OriginLab Corporation, Northampton, MA, USA).\nPurchased mushroom tyrosinase was used without further purification. […] The concentration of the two solution was determined spectrophotometrically (εTyr at 274.6 nm = 1.420; εtyrosinase at 280 nm = 1.426).\nTyrosinase-dependent diphenol and o-quinone formation was assessed as the appearance of a characteristic absorption band at about 304 and 477 nm, respectively. The inhibition activity was determined according to the following equation [33, 34]:% inhibition = 1 − [(D − C)/(B − A)] ∗ 100 where C and D are the absorbance values at either 304 or 477 nm in presence of inhibitor before mixing and upon reaching the maximum absorbance, respectively, while A and B are the corresponding values in absence of inhibitor."}, "[1]": {"details": "cited from earlier work", "text": "Antamanide is a cyclic decapeptide isolated from the lipophilic fraction of an extract of the green toadstool Amanite phalloides, able to form complexes of high stability with different metal ions. In order to improve the hydrophilicity of this peptide, the Phe residue at either the six or nine positions was replaced with a Gly residue."}, "B16F10 metastatic cells": {"test_system": "B16F10 metastatic cells", "details": "after 24 h of treatment; cited from earlier work", "text": "In the past years, we evaluated the chemical and biological activities of the cyclic decapeptide antamanide, firstly isolated from the lipophilic fraction of an extract of Amanite phalloides by the T. Wieland’s group in 1962 [3]. A characteristic of this peptide is its ability to form complexes of high stability with metal ions, including Na^+, K^+, Ca^2+, Tl^3+, and others. A close correlation has been found between the ion binding properties and the selectivity for Na^+ over K^+ with its antitoxic activity against phallotoxins and the prevention of their accumulation ... || Antamanide is a cyclic decapeptide isolated from the lipophilic fraction of an extract of the green toadstool Amanite phalloides, able to form complexes of high stability with different metal ions. In order to improve the hydrophilicity of this peptide, the Phe residue at either the six or nine positions was replaced with a Gly residue."}},
  "note": "“Also recorded” adds a separate entry of the source.",
  "data": [
    {"substance": "pseudostellarin A [PS-A]", "values": [
      {"measurement": "dependence of tyrosinase inhibitory activity on peptide concentration", "setting": "mushroom tyrosinase; 2 versus 0.2 µM (Figure 4)", "value": "lower when the concentration was higher"},
      {"measurement": "inhibitory activity towards the hydroxylation of tyrosine", "setting": "mushroom tyrosinase; calculated at 303 nm, peptide 2 and 0.2 µM, 50 mM phosphate buffer pH 6.8", "value": "low activity"},
      {"measurement": "inhibition of the oxidation of DOPA to dopaquinone", "setting": "mushroom tyrosinase; calculated at 477 nm, peptide 2 and 0.2 µM, 50 mM phosphate buffer pH 6.8, three replicates", "value": "about 30%"}
    ]},
    {"substance": "antamanide", "values": [
      {"measurement": "effects on tyrosinase activity", "setting": "mushroom tyrosinase; antamanide concentration 20 µM, data not shown", "value": "absence of effects"},
      {"measurement": "tyrosinase inhibitory activity", "setting": "mushroom tyrosinase; peptide 2 and 0.2 µM from DMSO stock, L-Tyr substrate, 50 mM phosphate buffer pH 6.8, UV-Vis at 304 and 477 nm, three replicates", "value": "did not inhibit; also recorded: No inhibitory activity; also recorded: not able to inhibit"},
      {"measurement": "ions selectivity", "setting": "[1]", "value": "Ca > Na >> K"},
      {"measurement": "cell proliferation of metastatic melanoma cell line", "setting": "B16F10 metastatic cells", "value": "significant reduction of cell proliferation"}
    ]}
  ]
}
